Assays:
[1] = tested on: human prostate cells (PC3, PC3-M, 1532NPTX, 1542NPTX, 1532CPTX, 1542CPTX); test: Boyden chamber cell invasion assay, human prostate cells; assay type: cell-based; settings: 10 μM, 3 days; normal, primary and metastatic PCa cells
Source text: FIG. 1a is a schematic flow of probe synthesis and development strategy. […] Values are mean±SEM of a single experiment in replicates of N=4, with similar findings in multiple separate experiments (also N=4). […] Values are mean±SEM of a single experiment in replicates of N=24, with similar findings in a separate experiment (also N=24). *Denotes Student's t test P value <0.05, compared to controls. […] Values are mean±SEM from N>2 separate experiments, each in replicates of N=3. […] Values are the mean±SD number of total, CFU-GM, CFU-GEMM or BFU-E colonies at 14 days after treatment with KBU2046, from a single experiment in replicates of N=2. […] Values are the mean±SD of a single experiment, with similar results seen in a separate experiment, both in replicates of N=2.
Cell Invasion Assays. Boyden chamber cell invasion assays were performed as previously described^9, using either denatured collagen (BD Biosciences) or type IV human collagen (BD Biosciences), with the experiments repeated, each in N=4 replicates. In some experiments, as indicated, cells were transfected with an expression plasmid, using Lipofectamine 2000™ (Invitrogen), or with siRNA, using DharmaFect Duo (Thermo Scientific) and co-transfected with β-Galactosidase (Plasmid pCMV⋅SPORT-βgal; Life Technology).

[2] = tested on: phosphorylated Ser226 on HSP90β; test: PhosphoScan LC-MS/MS proteomic analysis in PC3 cells; assay type: cell-based, human; settings: 10 μM 3 days, then TGFβ
Description: The 83 kDa protein was identified by pretreating PC3 cells with KBU2046 or vehicle control, treating with TGFβ and performing LC-MS/MS analysis on proteins pulled down by the KinomeView® antibody used in FIG. 4a. Resultant data were analyzed with the SEQUEST/Sorcerer data analysis suite, and proteins further selected based upon predetermined parameters (FIG. 19).
Phospho-proteomic Analysis. The Kinoview™ and PhosphoScan™ assays were performed by Cell Signaling Technology Inc.
Proteins bound in this manner were analyzed in replicates of N=2 using PhosphoScan™ technology. This identified 483 phosphopeptide assignments from 306 parent proteins, with a mean false discovery rate of 0.30% (estimated via Sorcerer search of composite human database of forward and reverse protein entries). Proteins were considered if the average values for treatment and control were each 3 times that of background. Further, it was required that each of the N=2 replicate values (used to calculate the average) to be >/=2.5 fold above background. Interest was focused on which protein decreased with KBU2046, and it was required that the decrease be >/=2.5 fold, compared to control. According to these parameters, there were 19 phospho-proteins whose expression decreased in cells treated with KBU2046, compared to control. These are depicted herein. […]

CDC37 = molecular target: T1, CDC37 (Homo sapiens, UniProt Q16543); test: Biophysical binding assays and DARTS, isolated CDC37; settings: ITC, thermal shift, biolayer interferometry, dynamic light scattering, DARTS
T1 construct: made in house; host or cells: BL-21 DE-3 E. coli, pET15b
T1 sequence (Q16543 whole entry): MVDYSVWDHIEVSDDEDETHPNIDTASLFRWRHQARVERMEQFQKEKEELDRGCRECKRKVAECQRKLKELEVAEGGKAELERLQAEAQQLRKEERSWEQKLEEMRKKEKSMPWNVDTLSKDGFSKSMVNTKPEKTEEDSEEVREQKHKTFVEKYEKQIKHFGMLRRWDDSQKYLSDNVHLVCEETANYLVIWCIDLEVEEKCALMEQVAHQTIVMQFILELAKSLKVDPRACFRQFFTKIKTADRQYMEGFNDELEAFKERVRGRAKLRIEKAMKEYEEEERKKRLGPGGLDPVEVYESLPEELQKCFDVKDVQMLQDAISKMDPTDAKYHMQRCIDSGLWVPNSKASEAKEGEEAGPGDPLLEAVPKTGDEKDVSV
Description: Studies used purified recombinant HSP90β or CDC37. […] For DARTS assay, HSP90β or CDC37 were individually pre-incubated with KBU2046, thermolysin added, and reaction products were separated by SDS PAGE and visualized by silver stain (depicted above). NTco—no thermolysin control. However, when the DARTS assay was conducted with both HSP90β and CDC37 present, KBU2046 protected both proteins from degradation in a concentration-dependent manner (see, FIG. 5a).
DARTS provides a sensitive measure of ligand-induced changes in protein structure and dynamics by measuring the ability of a ligand to protect its target from protease digestion (Lomenick, B. et al., Proc Natl Acad Sci USA 106, 21984-9 (2009)). […] The intensity of the CDC37 band increased, that of the HSP90β degradation product decreased, and both effects were statistically significant, concentration-dependent and were evident at 10 nM. […] Further, these findings also indicate that KBU2046 is not acting as a classical HSP90 inhibitor.
Biophysical and Biochemical Binding Assays. […]

estrogen receptor (ER) = molecular target: T2, estrogen receptor (ER) (Homo sapiens, UniProt P03372); test: pERE-Luc estrogen receptor reporter assay in MCF-7 cells; assay type: cell-based; settings: 24 hours, micromolar concentrations
T2 construct: estrogen receptor positive MCF-7 cells; endogenous in cells; host or cells: MCF-7
T2 sequence (P03372 whole entry): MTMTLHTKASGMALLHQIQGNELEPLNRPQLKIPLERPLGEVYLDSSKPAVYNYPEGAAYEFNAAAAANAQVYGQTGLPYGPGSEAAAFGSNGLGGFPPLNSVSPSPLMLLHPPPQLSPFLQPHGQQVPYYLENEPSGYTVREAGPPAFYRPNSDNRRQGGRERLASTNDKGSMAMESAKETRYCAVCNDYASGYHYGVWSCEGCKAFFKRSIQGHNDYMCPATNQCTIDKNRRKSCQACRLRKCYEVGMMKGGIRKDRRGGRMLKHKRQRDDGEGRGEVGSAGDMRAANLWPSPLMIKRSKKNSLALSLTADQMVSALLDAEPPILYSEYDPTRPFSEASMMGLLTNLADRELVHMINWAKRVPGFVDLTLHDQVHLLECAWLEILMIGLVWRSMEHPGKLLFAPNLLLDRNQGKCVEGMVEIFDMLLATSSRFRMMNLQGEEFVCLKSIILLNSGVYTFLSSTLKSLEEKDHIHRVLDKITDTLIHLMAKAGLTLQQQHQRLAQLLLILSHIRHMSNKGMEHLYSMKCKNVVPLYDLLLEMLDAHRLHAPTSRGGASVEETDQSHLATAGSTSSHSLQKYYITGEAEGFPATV
Source text: Values are the mean±SD of a single experiment, with similar results seen in a separate repeat experiment, both in replicates of N=2.
Constructs, Transfection, and Luciferase Assays. Constructs were purchased or gifts: constitutive active MEK4EE (MAP2K4-EE; residues 37-399; Addgene, plasmid 14813), pRL-TK-Renilla luciferase (Promega), pCMV-β-galactosidase (Agilent Technologies), and pcDNA-GFP (Invitrogen), HSP90β was from Pawel Bieganowski (Mossakowski Medical Research Center PAS, Poland) (Zurawska, A. et al., Biochim Biophys Acta 1803, 575-83 (2010)), estrogen responsive promoter-luciferase reporter construct, pERE-Luc, was from Craig Jordan (Georgetown University) (Catherino, W. H. et al., Cancer Lett 92, 39-47 (1995)), human CDC37 in pET15b plasmid was from Avrom Caplan (City College of New York) (Rao, J. et al., J Biol Chem 276, 5814-20 (2001)). siRNA used Dharmacon ON-Targetplus SMARTpool™ siRNA directed against HSP90β (cat #L-005187-00-0010) non-targeting siRNA (cat #D-001810-10-05), used TransIT-LT1 Transfection Reagent (Mirus Bio LLC), or with Dharmafect Duo (Thermo Scientific, Lafayette, Colo.) for co-delivery of plasmid. Luciferase assays were performed as described (Breen, M. J. et al., PLoS One 8, e72407 (2013)).
Luciferase activity was measured, normalized to that of β-gal, and values expressed as the percent of untreated vector control cells.

## O=C1c2ccccc2OCC1c1ccc(F)cc1 (racemic) [KBU2046, (±)-3(4-fluorophenyl)chroman-4-one]
[1]
  inhibition of cell invasion: inhibits cell invasion with efficacy equal-to-or-greater-than that of genistein
[2]
  decrease of abundance of phosphorylated Ser226 on HSP90β: 6.6 fold
CDC37
  binding to CDC37: no evidence of KBU2046 binding
Estrogen receptor (ER)
  activation of the estrogen receptor: does not activate the estrogen receptor (ER)

Source: US20210293825A1, “METHODS FOR PRECISION THERAPEUTIC TARGETING OF HUMAN CANCER CELL MOTILITY AND KITS THEREOF” (UNITED STATES GOVERNMENT AS REPRESENTED BY THE DEPARTMENT …, priority 2018, published 2021)
